Measurements as given in ChEMBL document CHEMBL1201862, “PubChem BioAssay data set” (2004).
Activity calls are given as the source filed them.

Legend:
Kallikrein-7 = Kallikrein-7 (Homo sapiens, UniProt P49862); assay: Fluorescence Intensity-based biochemical primary high throughput dose response assay to identify activators of kallikrein-7 (K7) zymogen.
Paired box protein Pax-8 = Paired box protein Pax-8 (Homo sapiens, UniProt Q06710); assay: inhibitors of PAX8-driven TPO luciferase reporter, dose response, RMG-I cells, cherry-pick (AID 687027); format: functional, cell-based;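 also: luciferase reporter driven by Pax8 target thyroperoxidase promoter measured by SteadyGlo luminescence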
[1] = NIH:OVCAR-3 ovarian cancer cell cytotoxicity, dose response, PAX8 inhibitor project, plate reader, dry powder samples (AID 743044); format: functional, cell-based
[2] = A2780 ovarian cancer cell cytotoxicity, dose response, cytotoxicity control, plate reader, dry powder samples (AID 743046); format: functional, cell-based
[3] = inhibitors of PGC1a acetylation in cells, dose response, cell-based, cherry-picked samples (AID 720514); format: functional;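 also: potency may reflect raised or lowered acetylation signal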
[4] = cytotoxicity in OVCAR8 ovarian cancer cells, dose response, PAX8 project, cell-based, plate reader, dry powder samples (AID 743197); format: functional; settings: OVCAR-8
[5] = IGROV1 ovarian cancer cell cytotoxicity, dose response, PAX8 inhibitor project, plate reader, dry powder samples (AID 743043); format: functional, cell-based; settings: IGROV-1
[6] = IOSE-T80 ovarian epithelial cell cytotoxicity, dose response, cytotoxicity control for PAX8 inhibitor project, plate reader, dry powder samples (AID 743045); format: functional, cell-based

Paired box protein Pax-8, sequence (Q06710 whole entry): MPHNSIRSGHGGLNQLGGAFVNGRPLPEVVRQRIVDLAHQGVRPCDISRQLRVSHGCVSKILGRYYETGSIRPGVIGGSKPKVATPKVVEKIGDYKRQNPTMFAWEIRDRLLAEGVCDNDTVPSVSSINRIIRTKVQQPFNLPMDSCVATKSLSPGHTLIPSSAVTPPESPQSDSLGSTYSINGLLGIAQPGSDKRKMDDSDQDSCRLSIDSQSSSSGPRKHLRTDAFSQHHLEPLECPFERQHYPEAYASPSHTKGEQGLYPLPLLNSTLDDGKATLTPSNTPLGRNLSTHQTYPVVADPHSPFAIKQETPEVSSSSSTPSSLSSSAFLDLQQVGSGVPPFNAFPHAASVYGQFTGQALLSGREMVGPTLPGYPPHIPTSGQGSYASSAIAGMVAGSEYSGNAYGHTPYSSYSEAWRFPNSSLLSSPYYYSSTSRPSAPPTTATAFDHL
Kallikrein-7, sequence (P49862 whole entry): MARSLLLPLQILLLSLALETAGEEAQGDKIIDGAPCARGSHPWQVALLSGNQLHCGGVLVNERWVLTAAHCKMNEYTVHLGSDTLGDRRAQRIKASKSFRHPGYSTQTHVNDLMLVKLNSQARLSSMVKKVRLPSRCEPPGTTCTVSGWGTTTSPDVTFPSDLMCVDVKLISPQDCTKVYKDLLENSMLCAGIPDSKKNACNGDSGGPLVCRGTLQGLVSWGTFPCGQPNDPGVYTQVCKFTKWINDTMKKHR

Compound | EC50 (Kallikrein-7) | AC50 (Paired box protein Pax-8) | AC50 [1] | AC50 [2] | AC50 [3] | AC50 [4] | AC50 [5] | AC50 [6]
COc1ccc2oc(=O)c(C(=O)N3CCN(C(=O)c4ccccc4)CC3)cc2c1 | > 69.5 µM (inactive) | – | – | – | – | – | – | –
N#Cc1ccc(-c2ccc([C@@H]3[C@@H]4CN(S(=O)(=O)c5ccc(-c6ccccc6)cc5)C[C@H]3N4)cc2)cc1 | – | 41.9 µM (active) | 28.8 µM (active) | 17.8 µM (active) | 1.55 µM (active) | 17.8 µM (active) | 34.9 µM (active) | 23.3 µM (active)
